Columns and labels:
Rpe65−/− mice [1] = assay: Analyses of retinoids and visual pigments in eyes of Rpe65−/− mice given 9-cis-retinal; assay type: in vivo, mouse
Procedure: All of the procedures were performed under dim red light as described previously (Van Hooser et al., Proc. Natl. Acad. Sci. USA 97:8623-28 (2000); Jang et al., J. Biol. Chem. 276:32456-65 (2001); Palczewski et al., Biochemistry 38:12012-19 (1999)). In addition to previously described methods, retinoid analysis was performed on an HP 1100 series high pressure liquid chromatograph (HPLC) equipped with a diode array detector and HP Chemstation A.07.01 software, allowing identification of retinoid isomers according to their specific retention time and absorption maxima. A normal phase column (Beckman Ultrasphere Si 5μ, 4.6×250 mm) and an isocratic solvent system of 0.5% ethyl acetate in hexane (v/v) for 15 minutes followed by 4% ethyl acetate in hexane for 60 minutes at a flow rate of 1.4 ml/minute at 20° C. (total 75 min) with detection at 325 nm allowed the separation of 11-cis-, 13-cis-, and all-trans-retinyl esters. In addition, all of the study procedures related to the analysis of dissected mouse eyes, derivatization, and separation of retinoids have been described previously in detail (Van Hooser et al., Proc. Natl. Acad. Sci. USA 97:8623-28 (2000)). Rhodopsin and iso-rhodopsin measurements were performed as described previously (Palczewski et al., Biochemistry 38:12012-19 (1999)). Typically, two mouse eyes were used per assay, and the assays were repeated three to six times. The data are presented with S.E.M.
Oral gavage was carried out as described previously (Van Hooser et al., Proc. Natl. Acad. Sci. USA 97:8623-28 (2000)).
The chemicals were purchased from Sigma/Aldrich unless otherwise specified. Solution A contained 10 mg of 9-cis-retinal, 75 mg of Cremophor EL, 1 mg of α-tocopherol, and 0.6 mg of benzoic acid suspended in 1 ml of lactated Ringer's solution (Baxter). The mixture was vortexed for 10 minutes and centrifuged for 10 minutes at 20,000×g, and the concentration of 9-cis-retinal (7.7 mM) was determined spectrophotometrically. Solution B contained 13 mg of 9-cis-retinal, 50 mg of Cremophor EL, 10 mg of dipalmitoylphosphatidyl choline, and 40 mg of 2-hydroxypropyl-β-cyclodextrin suspended in 1 ml of lactated Ringer's solution (Baxter). The mixture was vortexed for 10 minutes and centrifuged for 10 minutes at 20,000×g, and the concentration of 9-cis-retinal (10 mM) was determined spectrophotometrically. Solutions A and B (typically, 100 μl) were delivered to the mouse lateral tail vein employing a 1-ml syringe equipped with a 27-gauge needle and a restraint tube.

Rpe65−/− mice [2] = assay: Light and electron microscopy of RPE-ROS interface; assay type: in vivo, mouse
Procedure: Eye cups were prepared by removing the anterior segment and vitreous. […] “Thin” sections (1.0 μm) were stained with Richardson's blue solution (1%) and subjected to light microscopy. “Ultrathin” sections (0.05 μm) were stained with uranyl acetate/lead citrate and subjected to electron microscopy.

Rpe65−/− mice [3] = assay: Mouse flicker electroretinograms; assay type: in vivo
Procedure: Mice were dark-reared from birth and anesthetized (ketaject/xylaject, 65 mg/kg intraperitoneally), and the pupils were dilated with tropicamide (1%). […] The mice were placed in a Ganzfield chamber, and flicker recordings were obtained from one eye.

rods from Rpe65−/− mice = assay: Single cell recordings of isolated rods; assay type: in vivo, mouse
Procedure: Mice were dark-reared from birth and sacrificed via cervical dislocation, and the eyes were removed. The retina was isolated and stored on ice for up to 12 hours in HEPES-buffered Ames' solution (10 mM HEPES, pH adjusted to 7.4 with NaOH). Isolated rods were obtained by shredding a small piece of retina (roughly 1 mm^2) with fine needles in a 160-μl drop of solution. The drop was then injected into a recording chamber mounted on the stage of an inverted microscope (Nikon Eclipse) equipped with an infrared video viewing system and continuously superfused at 2-3 ml/minute with bicarbonate-buffered Ames' solution warmed to 37° C. (pH 7.4 when equilibrated with 5% CO2, 95% O2). The entire dissection was carried out under infrared illumination using a dissecting microscope equipped with infrared-visible image converters.
An isolated rod was drawn by suction into a heat-polished, silanized borosilicate electrode with an opening 1.2-1.5 μm in diameter. The electrode was filled with HEPES-buffered Ames' solution. The electrical connections to the bath and suction electrode were made by NaCl-filled agar bridges that contacted calomel half-cells. Bath voltage was held at ground by an active clamp circuit (Baylor et al. J. Physiol. 354:203-23 (1984)). Membrane current collected by the suction electrode was amplified by an Axopatch 200A patch clamp amplifier (Axon Instruments, Foster City, Calif.), filtered at 30 Hz (3 dB point) with an 8-pole Bessel low pass filter, and digitized at 1 kHz.
Light from light-emitting diodes with peak outputs at 470, 570, and 640 nm were combined using a trifurcated fiber optic and focused on the preparation using a water immersion lens in place of the microscope condensor. The light stimulus was spatially uniform and illuminated a circular area 0.57 mm in diameter centered on the recorded cell. Light intensities were measured at the preparation and converted to equivalent 500-nm photons (max for rod sensitivity) using the absorption spectrum of rhodopsin and the measured light-emitting diode spectrum.

Rpe65−/− mice [4] = settings: mouse, in vivo
Procedure: Mice were anesthetized by intraperitoneal injection with 15 μl/g body weight of 6 mg/ml ketamine and 0.44 mg/ml xylazine diluted with 10 mM phosphate buffer, pH 7.2, containing 100 mM NaCl. The pupils were dilated with 1% tropicamide. A contact lens electrode was placed on the eye with a drop of methylcellulose, and a ground electrode (a reference electrode) was placed in the ear. ERGs were recorded with the universal testing and electrophysiologic system 3000 (UTAS E-3000) (LKC Technologies, Inc.). The mice were placed in a Ganzfield chamber, and responses to flash stimuli were obtained from both eyes simultaneously. […] Two to four recordings were made with >10-second intervals. Typically, 4-8 animals were used for recording of each point in all conditions. All ERG measurements were done within 10-40 minutes after anesthesia.

Structure (SMILES): CC1=C(/C=C/C(C)=C\C=C\C(C)=C\C=O)C(C)(C)CCC1 [9-cis-retinal]
- axial density of iso-rhodopsin as share of rhodopsin in Rpe65+/+ rods (Rpe65−/− mice [1]; 0.25 mg): 16%
- free opsin as share of total available pigment (Rpe65−/− mice [1]; 0.25 mg): 72%
- axial density of iso-rhodopsin as share of rhodopsin in Rpe65+/+ rods (Rpe65−/− mice [1]; 1.25 mg): 21%
- free opsin as share of total available pigment (Rpe65−/− mice [1]; 1.25 mg): 63%
- amount of iso-rhodopsin (Rpe65−/− mice [1]; 2.5 mg): 300 pmol
- free opsin in rods (Rpe65−/− mice [1]; 2.5 mg): no free opsin
- iso-rhodopsin as share of rhodopsin in Rpe65+/+ rods (Rpe65−/− mice [1]; 2.5 mg): about 57%
- number of iso-rhodopsin molecules in rods (Rpe65−/− mice [1]; 2.5 mg): about 1.2×10^7
- iso-rhodopsin formed (Rpe65−/− mice [1]; 2.5 mg dose gavage): 300±25 pmol of iso-rhodopsin/eye
- iso-rhodopsin and 9-cis-retinyl esters after flashes (Rpe65−/− mice [1]; 2.5 mg, after 48 hour more than three intense flashes at 1-hour intervals): significantly depleted
- retinyl esters from liver and RPE after flashes (Rpe65−/− mice [1]; 2.5 mg, five flashes at 24-hour intervals): completely depleted
- all-trans-retinyl ester accumulation (Rpe65−/− mice [1]; 0.25-mg dose every other day from PND 7 until 30 days old): dramatic change in the ester accumulation
- iso-rhodopsin formed (Rpe65−/− mice [1]; 0.25-mg dose gavage): 85.6±6.2 pmol/eye
- iso-rhodopsin formed (Rpe65−/− mice [1]; 1.25-mg dose gavage): 109.8 pmol of iso-rhodopsin/eye
- decrease of iso-rhodopsin with age (Rpe65−/− mice [1]; 6-month-old (FIG. 2B) compared with FIG. 2A): 50%
- reduction of ester levels compared with untreated animals (Rpe65−/− mice [1]; 6 month-old Rpe65−/− mice treated twice, 2.5 mg/dose): > 50%
- iso-rhodopsin levels between dosing regimens (Rpe65−/− mice [1]; 6 month-old mice, 2.5 mg/dose twice at PND 30 and 34, 30 and 120, or 30 and 150): comparable
- pigment deficit of Rpe65−/− rods relative to Rpe65+/+ (Rpe65−/− mice [1]; 48 hours after treatment): approximately 40%
- time rod photopigment is produced and maintained (Rpe65−/− mice [1]; Rpe65−/− mice in the dark): more than 6 months
- overall amounts of all-trans-retinyl esters (Rpe65−/− mice [1]; continued administration of 1 dose (1.25 mg) per week after early treatment): dramatically suppressed
- accumulation of 9-cis-retinyl esters in the liver or RPE (Rpe65−/− mice [1]; intravenous injection, addition of cyclodextrin): higher accumulation
- iso-rhodopsin production (Rpe65−/− mice [1]; intravenous injection, with and without cyclodextrins): produced iso-rhodopsin
- depletion of retinal (iso-rhodopsin level) (Rpe65−/− mice [1]; single 2.5 mg dose at 1 month, 12-hour light/dark cycle or 24 hour dark for 37 days): No appreciable depletion of retinal
- removal of accumulated esters in the RPE (Rpe65−/− mice [1]; treatment began after more than 1 month of age): not removed
- filling of RPE vacuoles (lipid-like droplets) (Rpe65−/− mice [2]; early treated mice, over several months): only partially filled
- interface contacts between the RPE and ROS (Rpe65−/− mice [2]; young animals or young adults treated): improved
- time rod retinal function is supported post-treatment (Rpe65−/− mice [3]; early intervention, Rpe65−/− mice): more than 6 months
- gain in ERG sensitivity over untreated mice (Rpe65−/− mice [3]; eight weeks after single 2.5 mg): 2.1 logarithmic units
- flicker ERG peak amplitude (Rpe65−/− mice [3]; eight weeks after single 2.5 mg, at 0.059 cd·s/m^2): 137.3±24.4 μV
- flicker ERG peak amplitude (Rpe65−/− mice [3]; eight weeks after single 2.5 mg, at 13 cd·s/m^2): 40.0±7.1 μV
- persistence of partial recovery of ERG sensitivity (Rpe65−/− mice [3]; treated once at PND 30): more than 12 weeks
- factor of increase of half-saturating flash intensity over Rpe65+/+ rods (rods from Rpe65−/− mice; 0.25 mg): 131
- further desensitization of rods (rods from Rpe65−/− mice; 0.25 mg): 6.8 fold
- light-sensitive dark current of rods (rods from Rpe65−/− mice; 0.25 mg): 3.6±0.9 pA
- factor of increase of half-saturating flash intensity over Rpe65+/+ rods (rods from Rpe65−/− mice; 1.25 mg): 66
- further desensitization of rods (rods from Rpe65−/− mice; 1.25 mg): 4.5 fold
- dim flash response kinetics vs Rpe65+/+ (rods from Rpe65−/− mice; 2.5 mg): essentially the same kinetics
- factor of increase of half-saturating flash intensity over Rpe65+/+ rods (rods from Rpe65−/− mice; 2.5 mg): 6
- increase in half-saturating flash strength compared with rods of Rpe65+/+ (rods from Rpe65−/− mice; 2.5 mg): 6 fold
- rod dark current (rods from Rpe65−/− mice; 2.5 mg): essentially the same as Rpe65+/+
- dim flash response time-to-peak and recovery times (rods from Rpe65−/− mice; 1.25 or 0.25 mg): substantially faster than those of Rpe65+/+
- half-saturating flash intensity I0 (rods from Rpe65−/− mice; Rpe65−/− mice treated with 0.25 mg of 9-cis-retinal): 3929 equivalent 500 nm photons/μm^2
- half-saturating flash intensity I0 (rods from Rpe65−/− mice; Rpe65−/− mice treated with 1.25 mg of 9-cis-retinal): 1995 equivalent 500 nm photons/μm^2
- half-saturating flash intensity I0 (rods from Rpe65−/− mice; Rpe65−/− mice treated with 2.5 mg of 9-cis-retinal): 164 equivalent 500 nm photons/μm^2
- ERG activity (a- and b-wave) compared with Me2SO (Rpe65−/− mice [4]): significantly increased sensitivity

Source: patent publication US8962691B2, “Retinoid replacements and opsin agonists and methods for the use thereof” (University of Washington, priority 2003, dated 2015)
